System: K^Buty of H3 and H4 in HeLa cells
Assay: K^Buty level in histones of HeLa cells treated with HDAC inhibitors (immunoblot)
Assay type: cell-based
Settings: anti-K^Buty immunoblot
Method: FIGS. 17A-C. […] Four peptide libraries were spotted on nitrocellulose membrane with four dilutions and were used to assay the antibody's specificity. The 14-residue randomized peptide libraries have a fixed residue at 8th position, K^Ac in lane 1, K^Prop in lane 2, K^Buty in lane 3, and K in lane 4. Dot-blot analysis was used to test the specificity of the antibody. To perform the dot-blot analysis, 2 ul of peptide diluted in distilled water to different concentrations was spotted on a strip of nitrocellulose membrane and allowed to air dry. The membrane was then assayed in a manner similar to that used in the immunoblot analysis. […] Lane 3 and 4 are WB controls using anti-H3 and anti-H4 antibodies, respectively. For antibody competition assay, 200 ng of anti-K^Buty antibody was incubated with 1 ug of a peptide library with a fixed non-modified lysine (lane 1) or with a fixed butyryllysine (lane 2), respectively. After incubation for 3 hour at room temperature, the antibody was subjected to immunoblot against core histones derived from Hela cells. Histone H3 and H4 antibodies were used to indicate the positions of H3 or H4 (lane 3 and lane 4). […] The core histones were prepared from HeLa cells treated with nothing, or trichostatin A (TSA), or sodium butyrate (NaBu), as indicated. […]

Compound | K^Buty level (20 mM for 6 hours) | K^Buty level (10 uM, 6 Hours)
CCCC(=O)[O-].[Na+] [sodium butyrate] | dramatically induced | –
CC(/C=C/C(=O)NO)=C\[C@@H](C)C(=O)c1ccc(N(C)C)cc1 [trichostatin A] | – | dramatically induced

— patent US20080241862A1, “PROPIONYL AND BUTYRYL LYSINE MODIFICATIONS IN PROTEINS” (priority 2007, published 2008)
